Measurements reported in PMC5931096, “A Phase I study of the novel immunomodulatory agent PG545 (pixatimod) in subjects with advanced solid tumours” (British Journal of Cancer, 2018).

Test: Phase I dose-escalation: safety, tolerability, DLT and MTD of weekly 1-h IV infusion
Assay type: in vivo
Protocol: The study was an open-label, multicentre, phase 1 dose-escalation study using a 3 + 3 design. The primary objective was to determine the MTD of weekly administered PG545 via IV infusion. Secondary objectives were to characterize safety, tolerability, clinical activity, PK and PD biomarkers.
Patients continued treatment until disease progression, unacceptable toxicity or withdrawal (either voluntarily or investigator-decision).
All patients were assessed for safety, those who received at least one dose of PG545 were evaluated for efficacy. Safety assessment included the incidence of all adverse events (AEs), irrespective of relationship to study drug, according to the National Cancer Institute Common Terminology Criteria for Adverse Events, version 4.0, and the incidence of patients experiencing dose modifications and/or premature discontinuation of study drug. Dose-limiting toxicities (DLTs) used to determine the MTD were defined as occurring during Cycle 1 of treatment only and related to PG545 according to investigator assessment. If no DLT occurred in the first three subjects, the next three-subject cohort was enrolled at the next highest available dose level. If a single DLT occurred, an additional three subjects was enrolled at the same dose level. Dose escalation continued until two subjects of the cohort experienced a DLT; this was defined as the toxic dose level. The dose-escalation phase was completed and MTD determined by reducing the dose to the next lowest dose compared to the toxic dose and expanding this cohort to at least 6 subjects.

[1] = 150 mg, during or 1 h post-infusion, typical
[2] = Life threatening/Fatal, Unrelated, Safety Set

## CC(C)CCC[C@@H](C)[C@H]1CC[C@H]2[C@@H]3CC[C@H]4C[C@@H](O[C@@H]5O[C@H](COS(=O)(=O)O)[C@@H](O[C@H]6O[C@H](COS(=O)(=O)O)[C@@H](O[C@H]7O[C@H](COS(=O)(=O)O)[C@@H](O[C@H]8O[C@H](COS(=O)(=O)O)[C@@H](OS(=O)(=O)O)[C@H](OS(=O)(=O)O)[C@H]8OS(=O)(=O)O)[C@H](OS(=O)(=O)O)[C@H]7OS(=O)(=O)O)[C@H](OS(=O)(=O)O)[C@H]6OS(=O)(=O)O)[C@H](OS(=O)(=O)O)[C@H]5OS(=O)(=O)O)CC[C@]4(C)[C@H]3CC[C@]12C [PG545]
100 mg, N = 6
  Pyrexia, treatment-related AE: 1 (17) n (%)
150 mg cohort, first cycle
  Dose-limiting toxicities (DLTs), number: Three
150 mg, N = 9
  Acute pulmonary oedema, related AE leading to discontinuation: 1 (11) n (%)
  Acute pulmonary oedema, related serious AE: 1 (11) n (%)
  Acute pulmonary oedema, related severe AE: 1 (11) n (%)
  Blood cholesterol increased, related severe AE: 1 (11) n (%)
  Blood cholesterol increased, treatment-related AE: 1 (11) n (%)
  Blood pressure increased, related severe AE: 1 (11) n (%)
  Chills, related AE leading to discontinuation: 0 n (%)
  Chills, related severe AE: 1 (11) n (%)
  Chills, treatment-related AE: 4 (44) n (%)
  Decreased appetite, treatment-related AE: 2 (22) n (%)
  Diarrhoea, treatment-related AE: 1 (11) n (%)
  Epistaxis, related AE leading to discontinuation: 1 (11) n (%)
  Epistaxis, related serious AE: 1 (11) n (%)
  Epistaxis, related severe AE: 1 (11) n (%)
  Fatigue, related severe AE: 0 n (%)
  Fatigue, treatment-related AE: 1 (11) n (%)
  Headache, treatment-related AE: 0 n (%)
  Hypercholesterolemia, treatment-related AE: 0 n (%)
  Hyperlipidaemia, related severe AE: 0 n (%)
  Hypertension, related AE leading to discontinuation: 1 (11) n (%)
  Hypertension, related serious AE: 1 (11) n (%)
  Hypertension, related severe AE: 5 (56) n (%)
  Hypertension, treatment-related AE: 5 (56) n (%)
  Hypovolaemia, related serious AE: 0 n (%)
  Infusion-related reaction, related serious AE: 1 (11) n (%)
  Infusion-related reaction, related severe AE: 1 (11) n (%)
  Infusion-related reaction, treatment-related AE: 5 (56) n (%)
  Injection site reaction, treatment-related AE: 0 n (%)
  Nausea, treatment-related AE: 1 (11) n (%)
  Pyrexia, related AE leading to discontinuation: 0 n (%)
  Pyrexia, related serious AE: 0 n (%)
  Pyrexia, related severe AE: 0 n (%)
  Pyrexia, treatment-related AE: 1 (11) n (%)
[1]
  Diastolic pressure during hypertension events, increase to: 100 mm Hg
  Systolic pressure during hypertension events, increase to: 170 mm Hg
150 mg, one subject
  Blood pressure, substantial increase in one subject, to: 200/126
Life threatening/Fatal, Related, Safety Set
  TEAE: At least one event: 0 (0.0%)
[2]
  TEAE: At least one event: 5 (21.7%)
  TEAE: Death: 2 (8.7%)
  TEAE: Fatigue: 1 (4.3%)
  TEAE: GGT increased: 3 (13.0%)
  TEAE: General disorders and administration site conditions: 3 (13.0%)
  TEAE: Hyperuricaemia: 1 (4.3%)
  TEAE: Investigations: 3 (13.0%)
  TEAE: Metabolism and nutritional disorders: 1 (4.3%)
Mild, Related, Safety Set
  TEAE: Abdominal distension: 1 (4.3%)
  TEAE: Abdominal pain lower: 1 (4.3%)
  TEAE: Anaemia: 1 (4.3%)
  TEAE: Asthenia: 1 (4.3%)
  TEAE: At least one event: 16 (70.0%)
  TEAE: Back pain: 1 (4.3%)
  TEAE: Blood ALP increased: 1 (4.3%)
  TEAE: Blood and lymphatic system disorders: 1 (4.3%)
  TEAE: Blood cholesterol increased: 1 (4.3%)
  TEAE: Blood triglycerides increased: 1 (4.3%)
  TEAE: Chills: 2 (8.7%)
  TEAE: Constipation: 1 (4.3%)
  TEAE: Cough: 1 (4.3%)
  TEAE: Decreased appetite: 4 (17.4%)
  TEAE: Diarrhoea: 4 (17.5%)
  TEAE: Diplopia: 1 (4.3%)
  TEAE: Dizziness: 1 (4.3%)
  TEAE: Dysgeusia: 1 (4.3%)
  TEAE: Dyspepsia: 1 (4.3%)
  TEAE: Eye disorders: 1 (4.3%)
  TEAE: Fall: 1 (4.3%)
  TEAE: Fatigue: 1 (4.3%)
  TEAE: Gastrointestinal disorders: 8 (34.8%)
  TEAE: General disorders and administration site conditions: 11 (47.8%)
  TEAE: Headache: 2 (8.7%)
  TEAE: Hypercholesterolaemia: 1 (4.3%)
  TEAE: Hypovolaemia: 1 (4.3%)
  TEAE: Infusion related reaction: 1 (4.3%)
  TEAE: Injection site reaction: 2 (8.7%)
  TEAE: Injury, poisoning and procedural complications: 2 (8.7%)
  TEAE: Investigations: 3 (13.0%)
  TEAE: Low density lipoprotein increased: 1 (4.3%)
  TEAE: Malaise: 1 (4.3%)
  TEAE: Metabolism and nutritional disorders: 5 (21.7%)
  TEAE: Musculoskeletal and connective tissue disorders: 2 (8.7%)
  TEAE: Musculoskeletal pain: 1 (4.3%)
  TEAE: Nausea: 4 (17.5%)
  TEAE: Nervous system disorders: 3 (13.0%)
  TEAE: Oxygen saturation decreased: 1 (4.3%)
  TEAE: Peripheral coldness: 1 (4.3%)
  TEAE: Pyrexia: 5 (21.7%)
  TEAE: Rash: 1 (4.3%)
  TEAE: Rash erythematous: 1 (4.3%)
  TEAE: Respiratory, thoracic and mediastinal disorders: 1 (4.3%)
  TEAE: Skin and subcutaneous tissue disorders: 2 (8.7%)
  TEAE: Vascular disorders: 1 (4.3%)
Mild, Unrelated, Safety Set
  TEAE: Abdominal distension: 1 (4.3%)
  TEAE: Abdominal pain: 2 (8.7%)
  TEAE: Abdominal pain upper: 1 (4.3%)
  TEAE: Anxiety: 2 (8.7%)
  TEAE: Ascites: 1 (4.3%)
  TEAE: Back pain: 2 (8.7%)
  TEAE: Blood ALP increased: 1 (4.3%)
